Columns and labels:
Type in all cases: physicochemical
[1] = Compatibility of surfactants in seawater; parameters: key: A = clear; B = phase separation; conditions: in seawater (total salinity 57,670 ppm)
From the text: (§1) The properties of the surfactants in seawater including compatibility, critical micelle concentration (CMC) and the interfacial tension were investigated.

[2] = Critical micelle concentration (CMC) in seawater
From the text: as §1

[3] = Interfacial tension (IFT) of surfactants in seawater; conditions: for IFT 500 mg/L: surfactant 500 mg/L; for IFT 1000 mg/L: surfactant 1000 mg/L; for IFT 2000 mg/L: surfactant 2000 mg/L
From the text: as §1

CCCCCCCC/C=C\CCCCCCCCCCCC(=O)NCCC[N+](C)(C)CC(O)CO.[Cl-] (stereo not drawn) [C22APDAC, Erucyl amidopropyl-2,3-dihydroxypropyl ammonium chloride]
Compatibility 25° C. [1]: A | Compatibility 95° C. [1]: A | CMC [2]: 9.58e-06 mol/L | IFT 500 mg/L [3]: 2.11 × 10^−4 mN/m | IFT 1000 mg/L [3]: 1.21 × 10^−4 mN/m | IFT 2000 mg/L [3]: 1.1 × 10^−3 mN/m

CCCCCCCC/C=C\CCCCCCCCCCCC(=O)NCCC[N+](C)(C)CC(O)COC(C)=O.[Cl-] (stereo not drawn) [C22APHAAC, erucyl amidopropyl-2-hydroxy-3-acetoxypropyl ammonium chloride]
Compatibility 25° C. [1]: A | Compatibility 95° C. [1]: B | CMC [2]: 1.09e-05 mol/L | IFT 500 mg/L [3]: 1.11 mN/m | IFT 1000 mg/L [3]: 4.83 × 10^−3 mN/m | IFT 2000 mg/L [3]: 2.37 × 10^−3 mN/m

CCCCCCCC/C=C\CCCCCCCCCCCC(=O)NCCC[N+](C)(C)CC(O)COC(=O)C(F)(F)F.[Cl-] (stereo not drawn) [C22APHFAC, Erucyl amidopropyl-2-hydroxy-3-(2,2,2 trifluoroacetoxy) propyl ammonium chloride]
Compatibility 25° C. [1]: A | Compatibility 95° C. [1]: B | CMC [2]: 1.08e-05 mol/L | IFT 500 mg/L [3]: 0.31 mN/m | IFT 1000 mg/L [3]: 1.87 × 10^−2 mN/m | IFT 2000 mg/L [3]: 7.12 × 10^−3 mN/m

CCCCCCCC/C=C\CCCCCCCCCCCC(=O)NCCC[N+](C)(C)CC(O)COC(=O)CC.[Cl-] (stereo not drawn) [C22APHPAC, Erucyl amidopropyl-2-hydroxy-3-propoionyloxy propyl ammonium chloride]
Compatibility 25° C. [1]: A | Compatibility 95° C. [1]: B | CMC [2]: 1.25e-05 mol/L | IFT 500 mg/L [3]: 5.7 × 10^−2 mN/m | IFT 1000 mg/L [3]: 7 × 10^−3 mN/m | IFT 2000 mg/L [3]: 4.2 × 10^−2 mN/m

Source: US11591292B2, “Preparation of cationic surfactants” (Saudi Arabian Oil Company, priority 2020, dated 2023)
